From patent US20150306081A1, “Chemotherapy for Drug-Resistant Cancer Cells” (THE UNIVERSITY OF SYDNEY, priority 2012, published 2015)
Like-named read-outs stand apart in the source and are kept apart here. Blank lines part the entries; values can stand above or below the compound they belong to.

Tests used:
[1] = tested on: Pgp-expressing KBV1 cells; assay: MTT proliferation assay, KBV1 cells; format: cell-based, Human; details: for IC50: Homo sapiens, KB-V1, 72 h incubation; for IC50 / change of cytotoxicity in presence of Pgp inhibitors Val or Ela: KBV1 cells; for change of cytotoxicity in presence of Pgp inhibitors Val or Ela: Val 1 μM, Ela 0.1 μM, 72 h; for increase in resistance of KBV1 cells compared to KB31 cells: ratio of IC50, 72 h
[2] = tested on: Pgp expressing 2008/P200A cells; assay: MTT proliferation assay, 2008/P200A cells; format: cell-based; details: for sensitivity of 2008/P200A cells compared to 2008 cells: 72 h; for change of cytotoxicity in presence of Pgp inhibitors Val or Ela: 2008/P200A cells, Val 1 μM, Ela 0.1 μM
Description: (§1) The 2008 ovarian carcinoma cell line and the PAC-resistant 2008/P200A cell line (grown in 200 ng/mL of PAC) were kindly provided by Dr. John Allen (Centenary Institute, Sydney, Australia). Cells were grown in Dulbecco's modified Eagle's medium (DMEM; Life Technologies) with 10% (v/v) fetal calf serum (Sigma-Aldrich, St. Louis, Mo.) and supplemented with the following additions from Life Technologies: 1% (v/v) sodium pyruvate, 1% (v/v) non-essential amino acids, 100 U/mL penicillin, 100 μg/mL streptomycin, 2 mM L-glutamine and 0.28 μg/mL fungizone. The cells were then incubated at 37° C. in a humidified atmosphere of 5% CO2 and 95% air.
(§2) The effect of anti-cancer agents on cellular proliferation was examined using the MTT [3-(4,5-dimethylthiazol-2-yl)-2,5-diphenyl tetrazolium] method. In this assay, 3×10^3 cells/well were seeded in 96-well plates in 100 μL of media. The next day, serially diluted drugs of interest were added. […] The cells were incubated at 37° C. in a humidified atmosphere containing 5% CO2 and 95% air for 72 h. After this incubation, 10 μL of MIT (5 mg/mL) was added to each well and the incubation continued at 37° C. for 2 h. After solubilization of the cells with 100 μL of 10% SDS-50% isobutanol in 10 mM HCl, the plates were read at 570 nm using a scanning multi-well spectrophotometer (Victor™ Multilabel Counter plate reader; Perkin Elmer, Australia). Results were analyzed to calculate the concentration of chelator or complex necessary to reduce the absorbance to 50% (IC50) of the control.

Pgp [3] = target: T1, Pgp (Homo sapiens, UniProt P08183); assay: Pgp-ATPase activity assay (Pgp-Glo)
Description: The ATPase activities of Pgp were determined using Pgp-enriched membranes and a luminescent ATP detection kit (Pgp-Glo Assay Kit, Promega, USA) according to the manufacturer's instructions. Briefly, Pgp membranes (0.5 mg/mL) and Mg(II)-ATP (5 mM) were incubated in the absence or presence of sodium orthovanadate (100 μM) for 40 min/37° C. and ATP detected as a luciferase-generated luminescent signal. Basal Pgp-ATPase activities were determined as the difference between the ATP hydrolysis in the presence or absence of sodium orthovanadate. Verapamil-stimulated Pgp-ATPase activity was measured in the presence of the Pgp control substrate, verapamil (200 μM).
Test substrates (Dp44mT and Bp4eT) of interest were dissolved in dimethyl sulfoxide. The final concentration of DMSO in the assay medium was less than 1%.
The Pgp Glo™ ATPase assay (Promega, Madison, Wis.) was used to assess if Dp44mT and Bp4eT are substrates of Pgp. The ATPase assay measures the Pgp-mediated ATPase activity of Pgp by quantitating ATP consumption in the presence of the compounds of interest after incubation with purified membrane proteins containing high levels of Pgp. […] The basal ATPase activity of Pgp is compared to the ATPase activity stimulated or inhibited by the compounds of interest.

KBV1 cells [4] = assay: Lysosomal integrity, acridine orange flow cytometry, KBV1 cells; format: cell-based, Human; details: 30 min incubation
Description: Lysotracker® red (Life Technologies) and acridine orange (Sigma-Aldrich) are dyes showing high specificity for lysosomes and were used to determine lysosomal membrane permeability (LMP). The Lysotracker® red was visually assessed by fluorescence microscopy utilizing a Zeiss Axio Observer.Z1 Fluorescence Microscope equipped with an AxioCam camera (Zeiss, Oberkochen, Germany) and acridine orange was quantified by flow cytometry (see below).
Briefly, cells were incubated with Lysotracker® red (50 nM) for 15 min/37° C. or acridine orange (20 nM) for 15 min/37° C., washed on ice 3 times with ice-cold PBS and then incubated with Cu[Dp44mT] (25 μM) for 30 min/37° C. or Dp44mT alone (25 μM) for 30 min or 24 h/37° C.
(§3) The dyes, Rh123 and acridine orange were detected with the FACS Canto flow cytometer (BD Biosciences) and 10,000 events were acquired for every sample. Data analysis was performed using FlowJo software, version 7.5.5 (Tree Star Inc., Ashland, OR).

[5] = Redox studies: oxidation of H2DCF, cell-free
Description: These studies were conducted in an acetate buffer (150 mM; pH 5) containing cysteine (100 μM) to mimic lysosomal conditions. In these experiments, hydrogen peroxide (100 μM) was added to initiate ROS generation.

[6] = tested on: non-Pgp expressing KB31 cells; assay: MTT proliferation assay, KB31 cells; format: cell-based, Human; details: for IC50: Homo sapiens, KB 3-1, 72 h incubation; for change of cytotoxicity in presence of Pgp inhibitors Val or Ela: Val 1 μM, Ela 0.1 μM, 72 h
[7] = tested on: non-Pgp expressing 2008 cells; assay: MTT proliferation assay, 2008 cells; format: cell-based; details: for change of cytotoxicity in presence of Pgp inhibitors Val or Ela: 2008 cells, Val 1 μM, Ela 0.1 μM; for sensitivity of 2008 cells: compared to 2008/P200A cells
Description: as §1, §2

KBV1 cells [8] = assay: MTT cytotoxicity after transient knockdown of Pgp (MDR1 siRNA) in KBV1 cells; format: cell-based, Human; details: Pgp siRNA vs. Scr siRNA, 72 h
Description: as §2
For all siRNA treatments against MDR1 (MDR1-siRNA; Cat #: 4123, Life Technologies), a siRNAlipofectamine mixture (50 nM MDR1 siRNA and 1/400 lipofectamine 2000) was added to the cells (at 30% confluency) and incubated for 72 h/37° C. prior to further experimentation. The effectiveness of Pgp knockdown was confirmed using western blot and also assessing DOX cytotoxicity via the MTT assay. As a control, scrambled siRNA (Scr siRNA; Life Technologies) was used at the same concentration as MDR1 siRNA.

[9] = tested on: Pgp-expressing KBV1 cells; assay: Uptake of radio-labeled drug, KBV1 cells; format: cell-based, Human; details: for effect of Pgp inhibitors Val and Ela on uptake: KBV1 cells, Val 1 μM or Ela 0.1 μM pre-incubation, versus control
Description: Cells were then washed on ice three times with ice-cold PBS and collected for analysis. Drug uptake was calculated as the number of drug molecules/cell. […] For studies using lysosomotropic agents, cells were pre-incubated with NH4Cl (5 mM), CLQ (100 μM) or MA (100 μM) for 30 min/37° C. prior to ^14C-Dp44mT uptake. […] For efflux assays, the same labeling procedure was conducted as in the uptake assay. […] After this procedure, the overlying media was removed using a Pasteur pipette and then placed in a counting vial. The cells were removed from the plate in 1 mL of PBS and then dispensed into a separate counting vial.

[10] = tested on: non-Pgp expressing KB31 cells; assay: Uptake of radio-labeled drug, KB31 cells; format: cell-based, Human; details: Val 1 μM or Ela 0.1 μM pre-incubation, versus control
Description: For the uptake assay, each 35 mm culture dish containing 5×10^5 cells was incubated with ^14C-doxorubicin, ^3H-vinblastine or ^14C-Dp44mT (all at 1 μCi) for 30 min/37° C. Cells were then washed on ice three times with ice-cold PBS and collected for analysis. Drug uptake was calculated as the number of drug molecules/cell. […] For studies using lysosomotropic agents, cells were pre-incubated with NH4Cl (5 mM), CLQ (100 μM) or MA (100 μM) for 30 min/37° C. prior to ^14C-Dp44mT uptake. […] For efflux assays, the same labeling procedure was conducted as in the uptake assay. […] After this procedure, the overlying media was removed using a Pasteur pipette and then placed in a counting vial. The cells were removed from the plate in 1 mL of PBS and then dispensed into a separate counting vial. The radiolabeled-drug efflux was calculated as a percentage of the total drug uptake by the cells found at zero time.

[11] = tested on: non-Pgp expressing KB31 cells; assay: Rhodamine 123 accumulation assay, KB31 cells; format: cell-based, Human; details: increased concentrations
Description: Cells were then harvested and resuspended in ice-cold PBS and kept on ice until flow cytometric analysis (see below).
as §3

Pgp-expressing cells = details: reported by others; cited from earlier work
Pgp [12] = target: T1, Pgp; parameters: purchased Promega; details: reported by others, biochemical assays; cited from earlier work

T1 sequence (P08183 whole entry): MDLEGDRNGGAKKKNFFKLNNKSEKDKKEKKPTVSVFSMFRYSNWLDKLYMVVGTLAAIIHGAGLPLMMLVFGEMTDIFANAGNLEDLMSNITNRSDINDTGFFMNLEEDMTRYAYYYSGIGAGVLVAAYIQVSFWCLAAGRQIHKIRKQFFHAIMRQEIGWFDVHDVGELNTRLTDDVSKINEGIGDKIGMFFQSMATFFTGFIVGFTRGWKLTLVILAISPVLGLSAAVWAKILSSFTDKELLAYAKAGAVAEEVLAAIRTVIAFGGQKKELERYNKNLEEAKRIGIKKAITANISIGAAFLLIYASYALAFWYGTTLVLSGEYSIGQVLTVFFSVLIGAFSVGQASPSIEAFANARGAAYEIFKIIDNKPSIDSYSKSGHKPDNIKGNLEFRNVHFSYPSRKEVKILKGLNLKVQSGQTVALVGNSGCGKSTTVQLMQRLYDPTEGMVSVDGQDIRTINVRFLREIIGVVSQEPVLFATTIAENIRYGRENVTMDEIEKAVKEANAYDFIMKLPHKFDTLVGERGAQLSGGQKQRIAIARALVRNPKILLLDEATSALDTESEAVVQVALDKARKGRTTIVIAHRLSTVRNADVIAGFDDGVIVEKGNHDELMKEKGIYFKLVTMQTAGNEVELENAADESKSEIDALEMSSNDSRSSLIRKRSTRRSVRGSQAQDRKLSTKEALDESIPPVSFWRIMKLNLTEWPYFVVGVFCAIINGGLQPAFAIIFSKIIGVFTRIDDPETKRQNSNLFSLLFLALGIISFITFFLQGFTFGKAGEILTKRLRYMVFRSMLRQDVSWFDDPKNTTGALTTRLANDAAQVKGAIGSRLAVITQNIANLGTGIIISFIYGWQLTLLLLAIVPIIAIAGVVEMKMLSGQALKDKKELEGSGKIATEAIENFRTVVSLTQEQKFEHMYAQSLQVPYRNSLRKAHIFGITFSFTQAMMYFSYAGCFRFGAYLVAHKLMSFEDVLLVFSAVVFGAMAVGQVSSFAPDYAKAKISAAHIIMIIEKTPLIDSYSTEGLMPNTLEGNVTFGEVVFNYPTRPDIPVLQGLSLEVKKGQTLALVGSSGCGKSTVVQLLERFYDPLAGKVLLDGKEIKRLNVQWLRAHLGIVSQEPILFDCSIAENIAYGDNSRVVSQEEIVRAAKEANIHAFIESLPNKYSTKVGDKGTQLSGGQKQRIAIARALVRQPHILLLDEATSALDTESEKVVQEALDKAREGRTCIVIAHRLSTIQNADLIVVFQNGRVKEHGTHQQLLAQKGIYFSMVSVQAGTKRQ

Compound: CCNC(=S)NN=C(c1ccccc1)c1ccccn1 [Bp4eT, 2-benzoylpyridine-4-ethyl-3-thiosemicarbazone]
more cytotoxic in drug-resistant KBV1 cells compared to KB31 cells [1]: 6.7 fold
sensitivity of 2008/P200A cells compared to 2008 cells [2]: significantly (p<0.001) increased sensitivity
Pgp-ATPase activity (in words) (Pgp [3]; relative to basal activity): significant (p<0.001) stimulation of ATPase activity

Compound: [Cl][Cu][Cl] [CuCl2, copper(II) chloride]
Pgp-ATPase activity (in words) (Pgp [3]): Neither FeCl3 nor CuCl2 significantly stimulated ATPase activity
lysosomal integrity (acridine orange) (KBV1 cells [4]): did not compromise lysosomal integrity
redox activity (H2DCF oxidation) ([5]; acetate buffer pH 5, cysteine, H2O2, over 12 min): no activity

Compound: COc1cccc2c1C(=O)c1c(O)c3c(c(O)c1C2=O)C[C@@](O)(C(=O)CO)C[C@@H]3O[C@H]1C[C@H](N)[C@H](O)[C@H](C)O1 [DOX, Doxorubicin]
IC50 [1]: 96.4 ± 10.1 µM
change of cytotoxicity in presence of Pgp inhibitors Val or Ela [1]: markedly sensitized
increase in resistance of KBV1 cells compared to KB31 cells [1]: 220 fold
IC50 [6]: 0.44 ± 0.003 µM
change of cytotoxicity in presence of Pgp inhibitors Val or Ela [6]: no significant (p>0.05) change in cytotoxicity
change of cytotoxicity in presence of Pgp inhibitors Val or Ela [2]: abrogated the resistance
sensitivity of 2008/P200A cells compared to 2008 cells [2]: significantly higher resistance
change of cytotoxicity in presence of Pgp inhibitors Val or Ela [7]: did not significantly (p>0.05) affect the cytotoxicity
sensitivity of 2008 cells [7]: extremely sensitive
decrease of IC50 by knockdown of Pgp (KBV1 cells [8]): 15 fold
effect of Pgp inhibitors Val and Ela on uptake [9]: significantly (p<0.001) increased the uptake
cellular accumulation in KBV1 cells relative to KB31 cells ([9]; control groups, 1 μCi): significantly (p<0.001) less
effect of Pgp inhibitors Val and Ela on uptake [10]: did not significantly alter radiolabel uptake

Compound: COc1cc2c(cc1OC)CN(CCc1ccc(NC(=O)c3cccc4c(=O)c5cccc(OC)c5[nH]c34)cc1)CC2 [Ela, Elacridar]
effect on Rh123 accumulation [11]: no significant effect on Rh123 accumulation

Compound: [Cl][Fe]([Cl])[Cl] [FeCl3]
Pgp-ATPase activity (in words) (Pgp [3]): Neither FeCl3 nor CuCl2 significantly stimulated ATPase activity
lysosomal integrity (acridine orange) (KBV1 cells [4]): did not compromise lysosomal integrity

Compound: COc1ccc(NC(=S)N=Nc2c(O)[nH]c3c(Cl)cc(Cl)cc23)cc1 [NSC73306]
cytotoxicity to Pgp-expressing cells compared to parent cells (Pgp-expressing cells): increased cytotoxicity to Pgp-expressing cells
direct interaction with Pgp (Pgp [12]): no direct interaction

Compound: CC[C@]1(O)C[C@@H]2CN(CCc3c([nH]c4ccccc34)[C@@](C(=O)OC)(c3cc4c(cc3OC)N(C)[C@H]3[C@@](O)(C(=O)OC)[C@H](OC(C)=O)[C@]5(CC)C=CCN6CC[C@]43[C@@H]65)C2)C1 [VBL, Vinblastine]
IC50 [1]: 29.7 ± 1.77 µM
change of cytotoxicity in presence of Pgp inhibitors Val or Ela [1]: markedly sensitized
increase in resistance of KBV1 cells compared to KB31 cells [1]: 221 fold
IC50 [6]: 0.13 ± 0.004 µM
change of cytotoxicity in presence of Pgp inhibitors Val or Ela [6]: no significant (p>0.05) change in cytotoxicity
change of cytotoxicity in presence of Pgp inhibitors Val or Ela [2]: abrogated the resistance
sensitivity of 2008/P200A cells compared to 2008 cells [2]: significantly higher resistance
change of cytotoxicity in presence of Pgp inhibitors Val or Ela [7]: did not significantly (p>0.05) affect the cytotoxicity
sensitivity of 2008 cells [7]: extremely sensitive
effect of Pgp inhibitors Val and Ela on uptake [9]: significantly (p<0.001) increased the uptake
effect of Pgp inhibitors Val and Ela on uptake [10]: did not significantly alter radiolabel uptake

decrease of ATPase activity relative to the basal control (Pgp [3]; Pgp-enriched membranes, 40 min): 5 fold
Compound: C/C=C/C[C@@H](C)C(=O)[C@H]1C(=O)N[C@@H](C(C)C)C(=O)N(C)CC(=O)N(C)[C@@H](CC(C)C)C(=O)N[C@@H](C(C)C)C(=O)N(C)[C@@H](CC(C)C)C(=O)N[C@@H](C)C(=O)N[C@H](C)C(=O)N(C)[C@@H](CC(C)C)C(=O)N(C)[C@@H](CC(C)C)C(=O)N(C)[C@@H](C(C)C)C(=O)N1C [Val, Valspodar]

Compound: tetrathiolmolybdate [TM]
effect on redox activity / ROS generation of Cu[Dp44mT] ([5]; 5 μM, acetate buffer pH 5): totally prevented
